Measured values reported in US6399672B1, “Oil soluble metal-containing compounds, compositions and methods” (Sartomer Technologies Co., Inc., priority 1999, dated 2002).

Assay: Solubility of Zn salts in organic compounds
Conditions: mixed with organic monomers listed per example in b131-b162 (glycol di(meth)acrylates, trimethylolpropane triacrylate etc.)
Excerpt: The organic compounds tested with the products of each of the preceding examples were as follows: […]

zinc dimethacrylate
solubility in organic compounds: insoluble
